Test results reported in patent US12077503B2, “Substituted cyclic amides and their use as herbicides” (FMC CORPORATION, priority 2015, dated 2024).

Tests used:
Assay type in all cases: in vivo
Kochia (Kochia scoparia) [1] = assay: Test A preemergence; settings: Bassia scoparia, pre-emergence, 240 h, 500 g ai/ha, preemergence; visual injury rating about 10 d after treatment, 0 to 100 scale (0 no effect, 100 complete control); read-out: Kochia plant response rating
Method in brief: (§1)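 Seeded soil received test chemicals as a preemergence directed spray, and seedlings at one to two leaves, 2–10 cm tall, received them postemergence, in a non-phytotoxic, surfactant-containing solvent mixture. Pots were held in a greenhouse for approximately 10 d, then rated for injury from 0, no effect, to 100, complete control.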

[2] = test system: barnyardgrass (Echinochloa crus-galli); assay: Test A preemergence; settings: Echinochloa crus-galli, pre-emergence, 240 h
Method in brief: as §1

[3] = test system: giant foxtail (Setaria faberii); assay: Test A preemergence; settings: Setaria faberi, pre-emergence, 240 h
Method in brief: as §1

[4] = test system: pigweed (Amaranthus retroflexus); assay: Test A preemergence; settings: Amaranthus retroflexus, pre-emergence, 240 h
[5] = test system: ragweed (common ragweed, Ambrosia elatior); assay: Test A preemergence; settings: Ambrosia artemisiifolia, pre-emergence, 240 h
Method in brief: as §1

[6] = test system: ryegrass, Italian (Italian ryegrass, Lolium multiflorum); assay: Test A preemergence; settings: Lolium multiflorum, pre-emergence, 240 h
Method in brief: as §1

[7] = test system: Galium (catchweed bedstraw, Galium aparine); assay: Test A postemergence; settings: Galium, post-emergence, 240 h, 125 g ai/ha, Postemergence; visual injury after approximately 10 d; 0 to 100 scale where 0 is no effect and 100 is complete control; read-out: Plant response rating, Galium
Method in brief: as §1

Kochia (Kochia scoparia) [8] = assay: Test A postemergence; settings: Bassia scoparia, post-emergence, 240 h, 125 g ai/ha, Postemergence; visual injury after approximately 10 d; 0 to 100 scale where 0 is no effect and 100 is complete control; read-out: Plant response rating, Kochia
Method in brief: as §1

[9] = test system: barnyardgrass (Echinochloa crus-galli); assay: Test A postemergence; settings: Echinochloa crus-galli, post-emergence, 240 h, 125 g ai/ha, Postemergence; visual injury after approximately 10 d; 0 to 100 scale where 0 is no effect and 100 is complete control; read-out: Plant response rating, Barnyardgrass
Method in brief: as §1

[10] = test system: blackgrass (Alopecurus myosuroides); assay: Test A postemergence; settings: Alopecurus myosuroides, post-emergence, 240 h, 125 g ai/ha, Postemergence; visual injury after approximately 10 d; 0 to 100 scale where 0 is no effect and 100 is complete control; read-out: Plant response rating, Blackgrass
Method in brief: as §1

corn (Zea mays) = assay: Test A postemergence; settings: Zea mays, post-emergence, 240 h, 125 g ai/ha, Postemergence; visual injury after approximately 10 d; 0 to 100 scale where 0 is no effect and 100 is complete control
Method in brief: as §1

[11] = test system: giant foxtail (Setaria faberii); assay: Test A postemergence; settings: Setaria faberi, post-emergence, 240 h, 125 g ai/ha, Postemergence; visual injury after approximately 10 d; 0 to 100 scale where 0 is no effect and 100 is complete control; read-out: Plant response rating, Foxtail, Giant
Method in brief: as §1

[12] = test system: pigweed (Amaranthus retroflexus); assay: Test A postemergence; settings: Amaranthus retroflexus, post-emergence, 240 h, 125 g ai/ha, Postemergence; visual injury after approximately 10 d; 0 to 100 scale where 0 is no effect and 100 is complete control; read-out: Plant response rating, Pigweed
Method in brief: as §1

[13] = test system: ragweed (common ragweed, Ambrosia elatior); assay: Test A postemergence; settings: Ambrosia artemisiifolia, post-emergence, 240 h, 125 g ai/ha, Postemergence; visual injury after approximately 10 d; 0 to 100 scale where 0 is no effect and 100 is complete control; read-out: Plant response rating, Ragweed
Method in brief: as §1

[14] = test system: ryegrass, Italian (Italian ryegrass, Lolium multiflorum); assay: Test A postemergence; settings: Lolium multiflorum, post-emergence, 240 h, 125 g ai/ha, Postemergence; visual injury after approximately 10 d; 0 to 100 scale where 0 is no effect and 100 is complete control; read-out: Plant response rating, Ryegrass, Italian
Method in brief: as §1

[15] = test system: wheat (Triticum aestivum); assay: Test A postemergence; settings: Triticum aestivum, post-emergence, 240 h, 125 g ai/ha, Postemergence; visual injury after approximately 10 d; 0 to 100 scale where 0 is no effect and 100 is complete control; read-out: Plant response rating, Wheat
Method in brief: as §1

CN1C[C@H](c2cc(F)cc(C(F)(F)F)c2)[C@@H](C(=O)Nc2cccc(Cl)c2F)C1=O [Compound 995]
pest or weed control at 500 g/ha (Kochia (Kochia scoparia) [1]): 0%
pest or weed control at 125 g/ha ([2]; 125 g ai/ha, Preemergence, visual injury rating after approximately 10 d, read-out: Barnyardgrass plant response rating (0 to 100 scale, 0 is no effect, 100 is complete control)): 80%
pest or weed control at 500 g/ha ([2]; 500 g ai/ha, preemergence, visual injury rating about 10 d after treatment, 0 to 100 scale (0 no effect, 100 complete control), read-out: Barnyardgrass plant response rating): 90%
pest or weed control at 125 g/ha ([3]; 125 g ai/ha, Preemergence, visual injury rating after approximately 10 d, read-out: Foxtail, Giant plant response rating (0 to 100 scale, 0 is no effect, 100 is complete control)): 90%
pest or weed control at 500 g/ha ([3]; 500 g ai/ha, preemergence, visual injury rating about 10 d after treatment, 0 to 100 scale (0 no effect, 100 complete control), read-out: Foxtail, Giant plant response rating): 90%
pest or weed control at 125 g/ha ([4]; 125 g ai/ha, Preemergence, visual injury rating after approximately 10 d, read-out: Pigweed plant response rating (0 to 100 scale, 0 is no effect, 100 is complete control)): 20%
pest or weed control at 500 g/ha ([4]; 500 g ai/ha, preemergence, visual injury rating about 10 d after treatment, 0 to 100 scale (0 no effect, 100 complete control), read-out: Pigweed plant response rating): 30%
pest or weed control at 125 g/ha ([5]; 125 g ai/ha, Preemergence, visual injury rating after approximately 10 d, read-out: Ragweed plant response rating (0 to 100 scale, 0 is no effect, 100 is complete control)): 0%
pest or weed control at 500 g/ha ([5]; 500 g ai/ha, preemergence, visual injury rating about 10 d after treatment, 0 to 100 scale (0 no effect, 100 complete control), read-out: Ragweed plant response rating): 20%
pest or weed control at 125 g/ha ([6]; 125 g ai/ha, Preemergence, visual injury rating after approximately 10 d, read-out: Ryegrass, Italian plant response rating (0 to 100 scale, 0 is no effect, 100 is complete control)): 20%
pest or weed control at 500 g/ha ([6]; 500 g ai/ha, preemergence, visual injury rating about 10 d after treatment, 0 to 100 scale (0 no effect, 100 complete control), read-out: Ryegrass, Italian plant response rating): 50%
pest or weed control at 125 g/ha [7]: 40%
pest or weed control at 125 g/ha (Kochia (Kochia scoparia) [8]): 0%
pest or weed control at 125 g/ha [9]: 60%
pest or weed control at 125 g/ha [10]: 50%
Corn plant response rating (crop injury, 0 = no effect, 100 = complete kill) at 125 g/ha (corn (Zea mays)): 30%
pest or weed control at 125 g/ha [11]: 80%
pest or weed control at 125 g/ha [12]: 0%
pest or weed control at 125 g/ha [13]: 0%
pest or weed control at 125 g/ha [14]: 30%
plant injury at 125 g/ha [15]: 20%
